Assay results taken from article PMC10281575, “PfCRT mutations conferring piperaquine resistance in falciparum malaria shape the kinetics of quinoline drug binding and transport” (PLOS Pathogens, 2023).
Where “and” joins values, the source holds several entries; their conditions need not be identical. Identical values can stand only once.

Biological target: T1, PfCRT^Dd2 (Plasmodium falciparum, UniProt Q8IBZ9, A220S/I356T/K76T/M74I/N326S/N75E/Q271E/R371I)
T1 sequence (Q8IBZ9 1-424 M74I/N75E/K76T/A220S/Q271E/N326S/I356T/R371I): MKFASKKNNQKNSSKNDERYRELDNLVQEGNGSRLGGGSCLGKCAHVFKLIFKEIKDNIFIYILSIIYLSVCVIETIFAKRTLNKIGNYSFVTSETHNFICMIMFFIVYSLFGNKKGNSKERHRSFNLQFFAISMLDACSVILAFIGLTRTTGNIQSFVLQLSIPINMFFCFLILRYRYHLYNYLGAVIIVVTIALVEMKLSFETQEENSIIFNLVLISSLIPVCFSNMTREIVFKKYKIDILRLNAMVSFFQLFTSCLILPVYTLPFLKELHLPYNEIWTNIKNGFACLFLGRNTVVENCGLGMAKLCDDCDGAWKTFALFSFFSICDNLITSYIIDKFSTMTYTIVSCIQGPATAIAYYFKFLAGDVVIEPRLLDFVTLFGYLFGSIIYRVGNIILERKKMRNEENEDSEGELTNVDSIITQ
Assay: Radiolabeled drug uptake (transport assay) in Xenopus laevis oocytes expressing PfCRT^Dd2
Assay type: cell-based
Parameters: expressed in transfected cells; host or cells: Xenopus laevis oocytes injected with in vitro transcribed RNA (pSP64T)
Procedure: The two kinetic parameters were derived by fitting the Michaelis-Menten equation to the kinetic data (Table 1).
Adult female X. laevis frogs (purchased from NASCO) were anesthetized by submersion in a solution of 0.3% (w/v) 3-amino benzoate methanesulfonate for 15 min. Sections of the ovary were surgically removed and placed in Ca^2+-free ND96 buffer supplemented with 0.1% collagenase D (w/v; Roche), 0.5% BSA (w/v) and 9 mM Na2HPO4 at 18°C for 14–16 h while gently shaking. The oocytes were then washed several times with ND96 buffer (5 mM HEPES, pH 7.5, 96 mM NaCl, 2 mM KCl, 1.8 mM CaCl2, 1 mM MgCl2), supplemented with […] gentamycin. Healthy-looking stage V-VI oocytes were manually selected and randomly grouped for injection. A codon-optimized coding sequence of PfCRT was subcloned into the pSP64T expression vector and subsequently linearized using the restriction endonuclease BamHI or SalI (New England Biolabs GmbH). RNA for injection was transcribed in vitro using the mMESSAGE mMACHINE SP6 Transcription kit (Ambion), diluted with nuclease-free water to a final concentration of 0.6 μg/μL and stored at -80°C. RNA was injected using precision-bore glass capillary tubes (3.5-inch glass capillaries; Drummond Scientific Co.), which were pulled on a vertical puller (P-87 Flaming/Brown micropipette puller, Sutter Instrument Co.) and graduated. The micropipettes were connected to a microinjector (Nanoject II Auto-Nanoliter Injector, Drummond Scientific Co.). Injection was conducted under stereomicroscopic control. 50 nL of nuclease-free water alone (control oocytes) or 50 nL of nuclease-free water containing 30 ng of RNA was injected per oocyte. Injected oocytes were kept for 72 h at 18°C in ND96 buffer with two daily buffer changes before being used for further experiments.
Drug transport assays were performed as previously described. Briefly, measurements of radiolabeled drug uptake were made over 1 h, unless otherwise specified. […] Where specified, one or more unlabeled drugs were also present at the indicated concentrations. […] The uptake assays were terminated by removing the oocytes from the reaction medium and washing them three times with 2 mL of ice-cold ND96 buffer. Each oocyte was transferred to a separate scintillation vial and lysed by the addition of 200 μL of a 5% SDS solution. The radioactivity in the sample was measured using a liquid scintillation analyser Tri-Carb 4910 TR (PerkinElmer). Water-injected oocytes were analyzed in parallel as a negative control. The buffer from each condition was measured in duplicate in parallel to each experiment to transform counts per minute into pmol of drug. Drug uptake attributable to PfCRT was determined by subtracting the background uptake from water-injected oocytes from that of PfCRT-expressing oocytes. In all cases, at least three independent experiments were performed on oocytes from different frogs, and for each condition in an experiment, measurements were made from 10 oocytes per treatment.

[1] = 50 μM CQ, pH 6.0, total uptake, one value per biological replicate
[2] = 50 μM CQ, pH 6.0, water-injected uptake subtracted, per replicate
[3] = 60 min, pH 6, per biological replicate

Structure (SMILES): CCN(CC)CCCC(C)Nc1ccnc2cc(Cl)ccc12 (centres unmarked) [CQ, chloroquine]
- PfCRTDd2-mediated CQ uptake at 10 µM CQ (10 µM CQ, single replicates): 0.97 pmol oocyte-1 h-1 and 1.33 pmol oocyte-1 h-1 and 1.00 pmol oocyte-1 h-1
- PfCRTDd2 uptake of CQ at 10 min [1]: 5.12 pmol oocyte-1 and 4.60 pmol oocyte-1 and 2.93 pmol oocyte-1 and 4.96 pmol oocyte-1
- PfCRTDd2 uptake of CQ at 30 min [1]: 6.73 pmol oocyte-1 and 14.34 pmol oocyte-1 and 5.71 pmol oocyte-1
- PfCRTDd2 uptake of CQ at 60 min [1]: 19.28 pmol oocyte-1 and 12.33 pmol oocyte-1 and 10.23 pmol oocyte-1 and 14.77 pmol oocyte-1
- PfCRTDd2 uptake of CQ at 90 min [1]: 15.72 pmol oocyte-1 and 19.85 pmol oocyte-1 and 18.63 pmol oocyte-1 and 19.17 pmol oocyte-1
- PfCRTDd2 uptake of CQ at 120 min [1]: 20.73 pmol oocyte-1 and 30.99 pmol oocyte-1 and 21.07 pmol oocyte-1
- PfCRTDd2 uptake of CQ at 180 min [1]: 26.87 pmol oocyte-1 and 30.32 pmol oocyte-1 and 26.73 pmol oocyte-1 and 25.67 pmol oocyte-1
- PfCRTDd2-mediated CQ uptake at 10 min [2]: 1.03 pmol oocyte-1 and 0.90 pmol oocyte-1 and 1.98 pmol oocyte-1 and 0.91 pmol oocyte-1
- PfCRTDd2-mediated CQ uptake at 30 min [2]: 1.52 pmol oocyte-1 and 5.01 pmol oocyte-1 and 4.35 pmol oocyte-1
- PfCRTDd2-mediated CQ uptake at 60 min [2]: 4.91 pmol oocyte-1 and 4.76 pmol oocyte-1 and 7.49 pmol oocyte-1 and 5.04 pmol oocyte-1
- PfCRTDd2-mediated CQ uptake at 120 min [2]: 9.09 pmol oocyte-1 and 10.40 pmol oocyte-1 and 9.67 pmol oocyte-1
- PfCRTDd2-mediated CQ uptake at 180 min [2]: 13.62 pmol oocyte-1 and 9.61 pmol oocyte-1 and 9.37 pmol oocyte-1 and 10.85 pmol oocyte-1
- PfCRTDd2-mediated CQ uptakeat 90 min [2]: 7.12 pmol oocyte-1 and 4.31 pmol oocyte-1 and 9.50 pmol oocyte-1 and 9.09 pmol oocyte-1
- PfCRTDd2-mediated CQ uptake at 50 µM CQ (50 µM CQ, single replicates): 3.98 pmol oocyte-1 h-1 and 2.97 pmol oocyte-1 h-1 and 3.90 pmol oocyte-1 h-1 and 4.91 pmol oocyte-1 h-1 and 4.76 pmol oocyte-1 h-1 and 7.49 pmol oocyte-1 h-1 and 10.46 pmol oocyte-1 h-1 and 5.04 pmol oocyte-1 h-1
- PfCRTDd2-mediated CQ uptake at 100 µM CQ (100 µM CQ, single replicates): 9.74 pmol oocyte-1 h-1 and 9.30 pmol oocyte-1 h-1 and 7.99 pmol oocyte-1 h-1
- PfCRTDd2-mediated CQ uptake at 200 µM CQ (200 µM CQ, single replicates): 17.86 pmol oocyte-1 h-1 and 9.84 pmol oocyte-1 h-1 and 13.66 pmol oocyte-1 h-1 and 12.77 pmol oocyte-1 h-1
- PfCRTDd2-mediated CQ uptake at 300 µM CQ (300 µM CQ, single replicates): 20.89 pmol oocyte-1 h-1 and 20.25 pmol oocyte-1 h-1 and 12.53 pmol oocyte-1 h-1
- PfCRTDd2-mediated CQ uptake at 400 µM CQ (400 µM CQ, single replicates): 20.30 pmol oocyte-1 h-1 and 20.79 pmol oocyte-1 h-1 and 20.10 pmol oocyte-1 h-1
- PfCRTDd2-mediated CQ uptake at 500 µM CQ (500 µM CQ, single replicates): 20.49 pmol oocyte-1 h-1 and 20.91 pmol oocyte-1 h-1 and 20.75 pmol oocyte-1 h-1 and 25.01 pmol oocyte-1 h-1
- PfCRTDd2-mediated CQ uptake at 10 µM CQ [3]: 0.97 pmol oocyte-1 h-1 and 1.33 pmol oocyte-1 h-1 and 1.00 pmol oocyte-1 h-1
- PfCRTDd2-mediated CQ uptake at 50 µM CQ [3]: 3.98 pmol oocyte-1 h-1 and 2.97 pmol oocyte-1 h-1 and 3.90 pmol oocyte-1 h-1 and 4.91 pmol oocyte-1 h-1 and 4.76 pmol oocyte-1 h-1 and 7.49 pmol oocyte-1 h-1 and 10.46 pmol oocyte-1 h-1 and 5.04 pmol oocyte-1 h-1
- PfCRTDd2-mediated CQ uptake at 100 µM CQ [3]: 9.74 pmol oocyte-1 h-1 and 9.30 pmol oocyte-1 h-1 and 7.99 pmol oocyte-1 h-1
- PfCRTDd2-mediated CQ uptake at 200 µM CQ [3]: 17.86 pmol oocyte-1 h-1 and 9.84 pmol oocyte-1 h-1 and 13.66 pmol oocyte-1 h-1 and 12.77 pmol oocyte-1 h-1
- PfCRTDd2-mediated CQ uptake at 300 µM CQ [3]: 20.89 pmol oocyte-1 h-1 and 20.25 pmol oocyte-1 h-1 and 12.53 pmol oocyte-1 h-1
- PfCRTDd2-mediated CQ uptake at 400 µM CQ [3]: 20.30 pmol oocyte-1 h-1 and 20.79 pmol oocyte-1 h-1 and 20.10 pmol oocyte-1 h-1
- PfCRTDd2-mediated CQ uptake at 500 µM CQ [3]: 20.49 pmol oocyte-1 h-1 and 20.91 pmol oocyte-1 h-1 and 20.75 pmol oocyte-1 h-1 and 25.01 pmol oocyte-1 h-1
- Vmax, maximal velocity of drug transport (Michaelis-Menten fit, 10-500 μM drug, 60 min, pH 6): 33 ± 1 pmol oocyte^-1 h^-1
- Km (Michaelis-Menten fit, 10-500 μM drug, 60 min, pH 6, read-out: KM, Michaelis constant): 260 ± 10 µM
- PfCRTDd2-mediated CQ transport (S6 Fig, per biological replicate): 7.120 pmol oocyte-1 h-1 and 4.130 pmol oocyte-1 h-1 and 5.320 pmol oocyte-1 h-1
